Test results: US10822317B2, “Methods and compositions for wound healing” (QBiotics Limited, priority 2013, dated 2020)

What was measured:
[1] = tested on: human neonatal fibroblasts; assay: Scratch closure, human neonatal fibroblasts, Method 2; type: cell-based; details: 200 ng/mL
Procedure: The ability of early. passage neonatal foreskin fibroblasts (NFF) cultured in RPMI 1640-10% foetal calf serum to migrate across a scratch wound made in a confluent monolayer following treatment with purified compounds or plant extracts was determined using one or more of the following three methods.
Cells were seeded in 6 mm wells (96-well plates) or 16 mm (24-well plates), with 2 to 6 replicate wells/dilution, and treated as in Method 1. Immediately after treatment, the scratch edges were outlined on the underside of the well with a fine point felt pen. After fixing and staining, migration was assessed under the microscope with the aid of a graticule, scoring migration as 0, 25, 50, 75 or 100% (total closure) of the initial width. Accelerated wound closure was considered to be significant if mean quartile of replicates was […] that of untreated controls (p<0.05, t-test). In addition, “wound” areas were created by seeding cells in the presence of 3 mm stainless steel pins (96-well plate), or by inserting flat-edged Teflon rings. These devices were removed after overnight incubation of the NFF cells.

[2] = tested on: human neonatal fibroblast cells (NFFs); assay: Western blot of signalling molecules in human neonatal fibroblasts; type: cell-based; details: 10 or 30 ng/mL
Procedure: The Western Blot method was used to identify effects of Compounds 1 and 42 on proteins relevant to would repair and healing in human neonatal fibroblast cells (NFFs). Two studies were conducted. In the first study; NFFs were treated with either 10 or 30 ng Compound 1/mL for 6 or 24 hours, before harvesting and protein extraction. In the second study NFFs were treated individually with 30 ng/mL concentrations of Compounds 1 and 42 respectively for 6 hours. The resulting lysates from both studies were subjected to western blot analysis, and probing with specific antibodies to key signalling molecules involved in wound repair and healing.
The medium from adherent human neonatal fibroblasts grown in 75 cm^2 plates was removed and the cells were washed twice in ice cold PBS. The attached cells were harvested in 10 mL of ice cold PBS using a cell scraper (Costar, Corning) pelleted by centrifugation for 5 min (1,500 rpm, RTemp), resuspended in 1 mL of ice-cold PBS, and transferred to a 1.5 mL microfuge tube.
The cells were collected by centrifugation (13,200 rpm, RTemp, 2 s), the PBS removed and the pellets stored at −20° C. until required.
The frozen pellets were thawed on ice, and resuspended in a volume of cell lysis buffer 3-4 times the volume of the pellet by pipetting up and down. The cell suspension was sonicated 60 s at 4° C. and centrifuged for 20 min (13,200 rpm, 4° C.) and the […] containing the protein transferred to a fresh 1.5 ml microfuge tube. The protein was stored at −20° C.
Protein samples were diluted 1/10 and 1/20 (v/v) in MilliQ water and 10 μL was plated out in duplicate in. a flat-bottomed 96-well plate (Costar®, Corning). Stock solutions of bovine serum albumin (BSA) were prepared at 100, 200, 400, 600, 1,000, and 1,200 μg/mL and 10 μL/well plated out in duplicate and assayed alongside the samples. […] The raw absorbances were read at A590 nm on a microplate reader (VERSAmax, Molecular Devices) and a standard curve produced using SOFTmax PRO software (Molecular Devices). […]

neutrophils = assay: Induction of reactive oxygen burst by neutrophils; type: cell-based, human; details: 1 ng/ml to 100 μg/ml; 15 min; DHE, flow cytometry
Procedure: Neutrophils were isolated from fresh blood of a healthy human donor by lysis of a red blood cell pellet that had been obtained by Ficoll-Paque sedimentation. The neutrophils (˜4×10^6 cells/ml) were incubated with 10 μg/ml dihydroethidium (DHE) (Sigma-Aldrich) in complete culture medium at 37° C. for 15 min alongside an aliquot of unstained cells to be tested as unstained control. This incubation was followed by treatment with Compound 1 at a range of concentrations (0, 1 ng/ml, 10 ng/ml, 100 ng/ml, 1 μg/ml, 10 μg/ml, 100 μg/ml) for 15 min. The generation of reactive oxygen species following incubation was determined using a FACS Canto flow cytometer to measure fluorescence due to oxidation of DHE to the ethidium ion.

With `CC=C(C)C(=O)OC1C(C)C2(O)C(C3OC3(CO)C(O)C3(O)C(=O)C(C)=CC32)C2C(C)(C)C12OC(=O)C(C)CC` (centres unmarked) [Compound 1, 12-tigloyl-13-(2-methylbutanoyl)-6,7-epoxy-4,5,9,12,13,20-hexahydroxy-1-tigliaen-3-one] as the molecule, how does the “% closure compared to control” value [1] read?
The value was 180%.

And the “levels of MMP9 (Western blot)” value ([2]; 6 or 24 hours)?
Its value is “No difference”.

And the “activation of MEK1/2 and ERK/2 (Western blot)” value ([2]; 6 hours)?
The value was “transient activation”.

What about the “activation of MEK1/2 and ERK/2 (Western blot)” value ([2]; 24 hours) of the same molecule?
Its value is “down-regulation of activation”.

And the “production of reactive oxygen species (ROS)” value (neutrophils)?
The value was “induced the significant production of reactive oxygen species (ROS) in a dose-dependent manner”.
